Where two headings read alike, the source gives them in different places.
Columns and labels:
[1] = molecular target: T1, human recombinant Glo-I enzyme (rhGlo-I) (Homo sapiens, UniProt Q04760); assay: Glyoxalase-I (Glo-I) enzyme inhibition assay; format: biochemical; details: for Maximum (descriptive statistics of enzyme inhibition): highest mean inhibition over the tested concentrations; for Maximum (descriptive statistics of enzyme inhibition) / Minimum (descriptive statistics of enzyme inhibition): in % (unit assumed); for Minimum (descriptive statistics of enzyme inhibition): lowest mean inhibition over the tested concentrations
T1 construct: N-terminal Met and 6-His tag (N); purchased R&D Systems; host or cells: E. coli
T1 sequence (Q04760 2-184 limits assumed): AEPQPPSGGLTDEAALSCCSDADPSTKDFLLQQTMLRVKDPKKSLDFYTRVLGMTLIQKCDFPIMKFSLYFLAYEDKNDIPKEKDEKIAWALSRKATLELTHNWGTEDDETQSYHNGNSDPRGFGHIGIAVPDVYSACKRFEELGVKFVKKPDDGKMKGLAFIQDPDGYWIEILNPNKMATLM
Procedure: Solvents and chemicals were procured from Sigma-Aldrich Co. and Acros (ThermoFisher Scientific, New Jersey, USA). […] The enzyme was obtained from R&D Systems® Corporation in the USA. Synthetic compounds were tested for their inhibitory effects on the enzyme using a 10 mM DMSO stock concentration in triplicates. The manufacturer’s protocol from R & D Systems, Inc. in Minneapolis, MN, USA was followed for the in vitro experiments. The reconstituted Glo-I enzyme (0.5 mg/mL) was thawed after being stored at −70°C in sterile deionized water. […] The monitoring was done at a wavelength of 240 nm for 200 seconds at 37°C. The substrate mixture was freshly concocted with a concentration of 100 mM glutathione and 100 mM methylglyoxal (MG) in assay buffer containing 0.5 M sodium phosphate dibasic/monobasic. It was then left undisturbed at room temperature for 15 minutes […]. The selected compounds for investigation are subsequently produced in testing concentration ranges using a 0.1 M solution of sodium phosphate dibasic/monobasic with a pH range of 7–7.2. The blank contained an assay buffer with MG substrate. The test compounds were combined with human recombinant Glo-I (50 µM) in a 96-well plate to determine their kinetic behavior.

[2] = system: SW620 colorectal cancer cell line; assay: SRB cytotoxicity assay, SW620; format: cell-based; details: Homo sapiens, SW-620, 72 h incubation, n = 12, read-out: Cytotoxicity (as of %Control) IC50 value SW620
Procedure: (§1) The cancer cell lines were cultured in DMEM supplemented with 10% FBS (Bio Whittaker, Verviers, Belgium), HEPES Buffer (10 mM), gentamicin (50 µg/mL), L-glutamine (100 μg/mL), streptomycin ([…]), penicillin (100 µg/mL), and 4-(2-hydroxyethyl)-1-piperazineethanesulfonic acid (HEPES) Buffer (Sigma, St. Luis, MO, USA). The Sulforhodamine B used was obtained from Santa Cruz Biotechnology, Inc. in Texas, USA. […] Periodontal ligament fibroblasts (PDL) were utilized to assess specific cytotoxicity. Cancer cell lines that have survived offer several benefits. They provide a consistent and uninterrupted source of cells, so bypassing any ethical concerns related to the use of human tissue. Additionally, they are cost-effective. The cytotoxicity levels were assessed using the Sulforhodamine B (SRB) colorimetric assay, provided by Santa Cruz Biotechnology, Inc. in Texas, USA. The Spectro Scan 80D UV-VIS spectrophotometer, manufactured by Sedico Ltd. in Nicosia, Cyprus, was employed for this cytotoxicity screening. The cells were co-incubated with substances or a reference agent at various doses ranging from 5 to 200 μg/mL. […] The reduction in cell viability was analyzed by plotting Dose-response curves and expressing the data as a percentage of the control optical density. The IC50 values were obtained using regression analysis.

[3] = system: A549 lung cancer cell line; assay: SRB cytotoxicity assay, A549; format: cell-based; details: Homo sapiens, 72 h incubation, n = 12, read-out: Cytotoxicity (as of %Control) IC50 value A549 lung malignancy
Procedure: as §1

[4] = system: T47D breast cancer cell line; assay: SRB cytotoxicity assay, T47D; format: cell-based; details: Homo sapiens, 72 h incubation, n = 12, read-out: Cytotoxicity (as of %Control) IC50 value T47D mammary malignancy
Procedure: as §1

[5] = system: LPS-primed RAW 264.7 murine macrophages (nitrite / iNOS); assay: Anti-inflammatory (nitrite) determination in LPS-primed macrophages; format: cell-based; details: Mus musculus, read-out: iNOS- IC50 value
Procedure: The RAW 264.7 mouse macrophage cell line (ATCC® TIB-71) was cultivated in high glucose DMEM with 10% foetal bovine serum (FBS), 100 U/mL penicillin, 100 μg/mL streptomycin, and 100 μg/mL L-glutamate. The cells were incubated at 37°C in a humidified environment with 95% air and 5% CO2. Confluent macrophages (2 x 10^5/well) were cultured with lipopolysaccharide (LPS; 20 μg/mL; Sigma, St. Luis, MO, USA) and indomethacin (25–200 μg/mL) as the positive control, along with various concentrations (5–200 μg/mL) of treatment compounds. The cells were incubated for 24 hours. 100 μL of Griess reagent were combined with 100 μL portions of cell culture medium and left to incubate at room temperature for 10 minutes. The absorbance at a wavelength of 550 nm was measured using a microplate reader, namely the Spectro Scan 80D UV-VIS spectrophotometer manufactured by Sedico Ltd. in Nicosia, Cyprus. The nitrite concentration was assessed by comparing it to a standard curve of sodium nitrite. A cytotoxicity protocol using SRB was conducted to assess the impact of the test substances under study on RAW 264.7 viability.

[6] = read-out: Trial one (%inhibtion)
[7] = read-out: Trial three (%inhibtion)
[8] = read-out: Trial two (%inhibtion)
[9] = 3.125 µM, read-out: Trial one (%inhibtion)
[10] = 3.125 µM, read-out: Trial three (%inhibtion)
[11] = 3.125 µM, read-out: Trial two (%inhibtion)
[12] = 6.25 µM, read-out: Trial one (%inhibtion)
[13] = 6.25 µM, read-out: Trial three (%inhibtion)
[14] = 6.25 µM, read-out: Trial two (%inhibtion)
[15] = 12.5 µM, read-out: Trial one (%inhibtion)
[16] = 12.5 µM, read-out: Trial three (%inhibtion)
[17] = 12.5 µM, read-out: Trial two (%inhibtion)
[18] = 25 µM, read-out: Trial one (%inhibtion)
[19] = 25 µM, read-out: Trial three (%inhibtion)
[20] = 25 µM, read-out: Trial two (%inhibtion)
[21] = 50 µM, read-out: Trial one (%inhibtion)
[22] = 50 µM, read-out: Trial three (%inhibtion)
[23] = 50 µM, read-out: Trial two (%inhibtion)
[24] = human recombinant Glo-I, triplicates, read-out: IC50 µM ± SD
[25] = RAW264.7, LPS-primed RAW 264.7, nitrite by Griess, 24 h, n = 12

| Structure (SMILES) | Maximum (descriptive statistics of enzyme inhibition) [1] | Minimum (descriptive statistics of enzyme inhibition) [1] | IC50 [2] [µM] | IC50 [3] [µM] | IC50 [4] [µM] | inhibition at 3.125 µM [1, 9] [%] | inhibition at 3.125 µM [1, 10] [%] | inhibition at 3.125 µM [1, 11] [%] | inhibition at 6.25 µM [1, 12] [%] | inhibition at 6.25 µM [1, 13] [%] | inhibition at 6.25 µM [1, 14] [%] | inhibition at 12.5 µM [1, 15] [%] | inhibition at 12.5 µM [1, 16] [%] | inhibition at 12.5 µM [1, 17] [%] | inhibition at 25 µM [1, 18] [%] | inhibition at 25 µM [1, 19] [%] | inhibition at 25 µM [1, 20] [%] | inhibition at 50 µM [1, 21] [%] | inhibition at 50 µM [1, 22] [%] | inhibition at 50 µM [1, 23] [%] | also measured |
| --- | --- | --- | --- | --- | --- | --- | --- | --- | --- | --- | --- | --- | --- | --- | --- | --- | --- | --- | --- | --- | --- |
| CC(C)=CC[C@@H](O)C1=CC(=O)c2c(O)ccc(O)c2C1=O [Shikonin] | 100.7 | 23.58 | 60.3 ± 2.07 | 54 ± 5.8 | 30.9 ± 3.66 |  |  |  |  |  |  |  |  |  |  |  |  |  |  |  | IC50 [1]: 8.1 µM; inhibition at 3.125 µM [1, 6]: 16.9%; inhibition at 6.25 µM [1, 6]: 34.8%; inhibition at 12.5 µM [1, 6]: 59.4%; inhibition at 25 µM [1, 6]: 72.5%; inhibition at 50 µM [1, 6]: 104%; inhibition at 3.125 µM [1, 7]: 30%; inhibition at 6.25 µM [1, 7]: 51.3%; inhibition at 12.5 µM [1, 7]: 61%; inhibition at 25 µM [1, 7]: 73.9%; inhibition at 50 µM [1, 7]: 101%; inhibition at 3.125 µM [1, 8]: 23.8%; inhibition at 6.25 µM [1, 8]: 45.8%; inhibition at 12.5 µM [1, 8]: 65.1%; inhibition at 25 µM [1, 8]: 74.2%; inhibition at 50 µM [1, 8]: 96.9%; IC50 ([5]; RAW264.7, 24 h): 0.27 ± 0.05 µM |
| Cc1ccc(C(=O)c2cc(O)c(O)c([N+](=O)[O-])c2)cc1 [Tolcapone, reference compound] | 98.66 | 17.38 | 105 ± 8.35 | 62 ± 2.21 | 26.9 ± 0.35 | 12.3 | 20.4 | 19.4 | 28 | 36.3 | 39.7 | 54.2 | 56.5 | 60.9 | 78.1 | 80.9 | 82.1 | 96.1 | 102 | 97.6 | IC50 [1, 24]: 9.6 µM; IC50 [5, 25]: 1.19 ± 0.17 µM |
| O=C1c2ccc(O)c(O)c2C(=O)c2c(O)ccc(O)c21 [Quinalizarin] | 56.90 | 23.66 | 40.7 ± 2.21 | 7.9 ± 0.71 | 37.7 ± 4.78 | 22.8 | 28.6 | 19.5 | 32.6 | 33.7 | 28.6 | 37.2 | 41.8 | 35.4 | 42.7 | 43.6 | 46.6 | 55.5 | 55.3 | 59.9 | IC50 [1, 24]: 33.4 ± 12.6 µM; IC50 [5, 25]: 1.85 ± 0.34 µM |
| C[C@]12CC[C@@H]3c4ccc(O)c(O)c4CC[C@H]3[C@@H]1CC[C@@H]2O [4-hydroxy-estradiol] | 102.5 | 20.07 | 142 ± 16.5 | 15.2 ± 1.34 | 51.5 ± 5.2 | 93 | 95.6 | 96.1 | 95.6 | 96.1 | 97.7 | 99.8 | 99.3 | 98.7 | 102 | 104 | 102 | 102 | 101 | 101 | inhibition at 0.09765 µM [1, 6]: 18%; inhibition at 0.09765 µM [1, 7]: 20.6%; inhibition at 0.09765 µM [1, 8]: 21.7%; inhibition at 0.1953 µM [1, 6]: 57.6%; inhibition at 0.1953 µM [1, 7]: 59.2%; inhibition at 0.1953 µM [1, 8]: 55.5%; inhibition at 0.3906 µM [1, 6]: 69.7%; inhibition at 0.3906 µM [1, 7]: 66%; inhibition at 0.3906 µM [1, 8]: 67.1%; inhibition at 0.7812 µM [1, 6]: 80.8%; inhibition at 0.7812 µM [1, 7]: 81.3%; inhibition at 0.7812 µM [1, 8]: 82.9%; inhibition at 1.562 µM [1, 6]: 99.8%; inhibition at 1.562 µM [1, 7]: 94%; inhibition at 1.562 µM [1, 8]: 91.4%; IC50 [1, 24]: 0.22 µM; IC50 [5, 25]: 0.25 ± 0.04 µM |
